Test results: patent US11427548B2 (Arvinas Operations, Inc., priority 2015, dated 2022)
Like-named read-outs stand apart in the source and are kept apart here.

Target: T1, Androgen Receptor (Homo sapiens, UniProt P10275)
T1 construct: endogenous in cells; host or cells: VCaP cells
T1 sequence (P10275 1-920): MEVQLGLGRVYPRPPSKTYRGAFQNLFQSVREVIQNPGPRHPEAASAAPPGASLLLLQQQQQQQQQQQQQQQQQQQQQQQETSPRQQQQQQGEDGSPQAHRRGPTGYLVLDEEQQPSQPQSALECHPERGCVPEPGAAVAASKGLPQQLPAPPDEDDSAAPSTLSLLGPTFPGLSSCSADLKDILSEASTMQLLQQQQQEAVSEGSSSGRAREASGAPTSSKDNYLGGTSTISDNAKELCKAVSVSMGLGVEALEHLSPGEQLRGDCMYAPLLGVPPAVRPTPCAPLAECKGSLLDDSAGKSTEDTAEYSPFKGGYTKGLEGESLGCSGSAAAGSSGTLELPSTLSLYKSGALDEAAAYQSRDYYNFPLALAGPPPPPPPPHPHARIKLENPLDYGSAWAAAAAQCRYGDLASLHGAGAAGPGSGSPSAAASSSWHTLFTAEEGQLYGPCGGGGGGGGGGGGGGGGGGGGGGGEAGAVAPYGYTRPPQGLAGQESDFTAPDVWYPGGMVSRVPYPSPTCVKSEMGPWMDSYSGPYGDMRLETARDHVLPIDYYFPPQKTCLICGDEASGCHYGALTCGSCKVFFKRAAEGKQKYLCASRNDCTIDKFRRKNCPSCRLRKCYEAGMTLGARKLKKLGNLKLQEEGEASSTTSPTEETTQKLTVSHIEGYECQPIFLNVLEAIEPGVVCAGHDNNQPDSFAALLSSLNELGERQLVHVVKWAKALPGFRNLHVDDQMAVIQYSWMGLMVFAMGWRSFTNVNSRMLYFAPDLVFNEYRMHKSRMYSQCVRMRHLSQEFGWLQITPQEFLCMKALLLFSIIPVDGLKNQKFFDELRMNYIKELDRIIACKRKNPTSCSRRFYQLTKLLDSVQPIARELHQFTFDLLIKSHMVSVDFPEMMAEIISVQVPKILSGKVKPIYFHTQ
Assay: Androgen Receptor ELISA assay (PathScan AR ELISA) in VCaP cells: AR degradation, Dmax and DC50
Assay type: cell-based
Procedure, shortened: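 After 24 h exposure of VCaP cells (charcoal-stripped serum, 0.1 nM R1881 agonist, 0.1% DMSO) to seven half-log compound concentrations, residual AR in lysates was measured by PathScan ELISA (TMB absorbance, 450 nm). Cells were plated at 30,000/well and grown at least 3 days beforehand.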

[1] = VCaP cells; Table 35; read-out: VCaP DC50
[2] = VCaP, VCaP cells; Table 35; read-out: VCaP Dmax (%)
[3] = read-out: VCaP DC50; VCaP cells; Table 35
[4] = VCaP cells; Table 36; read-out: VCaP DC50
[5] = VCaP, VCaP cells; Table 36; read-out: VCaP Dmax (%)

Row | DC50 [1] [nM] | Dmax [2] [%] | SMILES | Dmax (VCaP, read-out: VCaP Dmax (%)) [%] | DC50 [3] [nM] | further results
1 | < 50 | > 71 | CC(C)(C)[C@H](NC(=O)COCCCCCNc1ccc(C(=O)N[C@H]2C(C)(C)[C@H](Oc3ccc(C#N)c(Cl)c3)C2(C)C)cc1)C(=O)N1C[C@H](O)C[C@H]1C(=O)NCc1ccc(-c2scnc2C2CC2)cc1 [Example 555] | – | – | –
2 | < 50 | > 71 | CC(C)c1ncsc1-c1ccc(CNC(=O)[C@@H]2C[C@@H](O)CN2C(=O)[C@@H](NC(=O)COCCCCCNc2ccc(C(=O)N[C@H]3C(C)(C)[C@H](Oc4ccc(C#N)c(Cl)c4)C3(C)C)cc2)C(C)(C)C)cc1 [Example 556] | – | – | –
3 | < 50 | 51 to 70 | Cc1ncsc1-c1ccc(CNC(=O)[C@@H]2C[C@@H](O)CN2C(=O)[C@@H](NC(=O)COC[C@@H](O)[C@H](O)COc2ccc(C(=O)N[C@H]3C(C)(C)[C@H](Oc4ccc(C#N)c(Cl)c4)C3(C)C)cc2)C(C)(C)C)cc1 [Example 563] | – | – | –
4 | < 50 | > 71 | Cc1ncsc1-c1ccc(CNC(=O)[C@@H]2C[C@@H](O)CN2C(=O)[C@@H](NC(=O)COC[C@H]2C[C@H](Oc3ccc(C(=O)N[C@H]4C(C)(C)[C@H](Oc5ccc(C#N)c(Cl)c5)C4(C)C)cc3)C2)C(C)(C)C)cc1 [Example 564] | – | – | –
5 | < 50 | > 71 | CC(C)(C)[C@H](NC(=O)COCCCCOc1ccc(C(=O)N[C@H]2C(C)(C)[C@H](Oc3ccc(C#N)c(Cl)c3)C2(C)C)cc1)C(=O)N1C[C@H](O)C[C@H]1C(=O)NCc1ccc(-n2cccn2)cc1 [Example 568] | – | – | –
6 | < 50 | > 71 | C[C@H](NC(=O)[C@@H]1C[C@@H](O)CN1C(=O)[C@@H](NC(=O)COCCCCOc1ccc(C(=O)N[C@H]2C(C)(C)[C@H](Oc3ccc(C#N)c(Cl)c3)C2(C)C)cc1)C(C)(C)C)c1ccc(-c2nncs2)cc1 [Example 570] | – | – | –
7 | > 501 | 51 to 70 | CC(C)(C)[C@H](NC(=O)COCCOc1ccc(-c2ccc(C(=O)N[C@H]3C(C)(C)[C@H](Oc4ccc(C#N)c(Cl)c4)C3(C)C)cc2)cc1)C(=O)N1C[C@H](O)C[C@H]1C(=O)NCc1ccc(Cl)cc1 [Example 573] | – | – | –
8 | < 50 | > 71 | Cc1ncsc1-c1ccc(CNC(=O)[C@@H]2C[C@@H](O)CN2C(=O)[C@@H](NC(=O)COC[C@H](O)[C@@H](O)COc2ccc(C(=O)N[C@H]3C(C)(C)[C@H](Oc4ccc(C#N)c(Cl)c4)C3(C)C)cc2)C(C)(C)C)cc1 [Example 577] | – | – | –

Continued, molecule first:

Row | SMILES | DC50 [1] [nM] | Dmax [2] [%] | Dmax (VCaP, read-out: VCaP Dmax (%)) [%] | DC50 [3] [nM] | further results
9 | Cc1ncsc1-c1ccc([C@H](C)NC(=O)[C@@H]2C[C@@H](O)CN2C(=O)[C@@H](NC(=O)COC[C@H](O)[C@@H](O)COc2ccc(-c3ccc(N4C(=S)N(c5ccc(C#N)c(C(F)(F)F)c5)C(=O)C4(C)C)cc3)cc2)C(C)(C)C)cc1 [Example 559] | – | – | > 71 | < 50 | –
10 | Cc1ncsc1-c1ccc(CNC(=O)[C@@H]2C[C@@H](O)CN2C(=O)[C@@H](NC(=O)COC[C@H]2C[C@H](Oc3ccc(-c4ccc(N5C(=S)N(c6ccc(C#N)c(C(F)(F)F)c6)C(=O)C5(C)C)cc4)cc3)C2)C(C)(C)C)cc1 [Example 565] | – | – | > 71 | < 50 | –
11 | Cc1ncsc1-c1ccc(CNC(=O)[C@@H]2C[C@@H](O)CN2C(=O)[C@@H](NC(=O)COC[C@@H](O)[C@H](O)COc2ccc(-c3ccc(N4C(=S)N(c5ccc(C#N)c(C(F)(F)F)c5)C(=O)C4(C)C)cc3)cc2)C(C)(C)C)cc1 [Example 566] | – | – | 51 to 70 | < 50 | –
12 | Cc1ncsc1-c1ccc(CNC(=O)[C@@H]2C[C@@H](O)CN2C(=O)[C@@H](NC(=O)COC[C@H](O)[C@@H](O)COc2ccc(-c3ccc(N4C(=S)N(c5ccc(C#N)c(C(F)(F)F)c5)C(=O)C4(C)C)cc3)cc2)C(C)(C)C)cc1 [Example 567] | – | – | > 71 | < 50 | –
13 | C[C@H](NC(=O)[C@@H]1C[C@@H](O)CN1C(=O)[C@@H](NC(=O)COCCCCOc1ccc(C(=O)N[C@H]2C(C)(C)[C@H](Oc3ccc(C#N)c(Cl)c3)C2(C)C)cc1)C(C)(C)C)c1ccc(-c2ncon2)cc1 [Example 569] | < 50 | > 71 | – | – | –
14 | CC(C)(C)[C@H](NC(=O)COCCCCOc1ccc(-c2ccc(N3C(=S)N(c4cnc(C#N)c(C(F)(F)F)c4)C(=O)C3(C)C)cc2)cc1)C(=O)N1C[C@H](O)C[C@H]1C(=O)NCc1ccc(C#N)cc1 [Example 571] | < 50 | > 71 | – | – | –
15 | C[C@H](NC(=O)[C@@H]1C[C@@H](O)CN1C(=O)[C@@H](NC(=O)COCCCCOc1ccc(C(=O)N[C@H]2C(C)(C)[C@H](Oc3ccc(C#N)c(Cl)c3)C2(C)C)cc1)C(C)(C)C)c1ccc(Cl)cc1 [Example 572] | < 50 | > 71 | – | – | –
16 | Cc1ncsc1-c1ccc([C@H](C)NC(=O)[C@@H]2C[C@@H](O)CN2C(=O)[C@@H](NC(=O)COC[C@@H](O)[C@H](O)COc2ccc(-c3ccc(N4C(=S)N(c5ccc(C#N)c(C(F)(F)F)c5)C(=O)C4(C)C)cc3)cc2)C(C)(C)C)cc1 [Example 574] | – | – | > 71 | < 50 | –
17 | Cc1ncsc1-c1ccc([C@H](C)NC(=O)[C@@H]2C[C@@H](O)CN2C(=O)[C@@H](NC(=O)COC[C@@H](O)CCOc2ccc(-c3ccc(N4C(=S)N(c5ccc(C#N)c(C(F)(F)F)c5)C(=O)C4(C)C)cc3)cc2)C(C)(C)C)cc1 [Example 575] | – | – | > 71 | < 50 | –
18 | Cc1ncsc1-c1ccc([C@H](C)NC(=O)[C@@H]2C[C@@H](O)CN2C(=O)[C@@H](NC(=O)COC[C@H](O)CCOc2ccc(-c3ccc(N4C(=S)N(c5ccc(C#N)c(C(F)(F)F)c5)C(=O)C4(C)C)cc3)cc2)C(C)(C)C)cc1 [Example 576] | – | – | > 71 | < 50 | –
19 | Cc1ncsc1-c1ccc([C@H](C)NC(=O)[C@@H]2C[C@@H](O)CN2C(=O)[C@H](C(C)C)n2cc(-c3ccnc(OC4CN(c5ccc(C(=O)N[C@H]6C(C)(C)[C@H](Oc7ccc(C#N)c(Cl)c7)C6(C)C)cn5)C4)c3)cn2)cc1 [Example 594, N-((1r,3r)-3-(3-chloro-4-cyanophenoxy)-2,2,,4-tetramethylcyclobutyl)-6-(3-((4-(1-((S)-1-((2S,4R)-4-hydroxy-2-(((S)-1-(4-(4-methylthiazol-5-yl)phenyl)ethyl)carbam-oyl)pyrrolidin-1-yl)-3-methyl-1-oxobutan-2-yl)-1H-pyrazol-4-yl)pyridin-2-yl)oxy)azetidin-1-yl)nicotinamide] | – | – | – | – | DC50 [4]: > 501 nM; Dmax [5]: < 25%
20 | Cc1ncsc1-c1ccc([C@H](C)NC(=O)[C@@H]2C[C@@H](O)CN2C(=O)[C@@H](C(C)C)n2cc(-c3ccnc(OC4CN(c5ccc(C(=O)N[C@H]6C(C)(C)[C@H](Oc7ccc(C#N)c(Cl)c7)C6(C)C)cn5)C4)c3)cn2)cc1 [Example 595, N-((1r,3r)-3-(3-chloro-4-cyanophenoxy)-2,2,4,4-tetramethylcyclobutyl)-6-(3-((4-(1-((R)-1-((2S,4R)-4-hydroxy-2-(((S)-1-(4-(4-methylthiazol-5-yl)phenyl)ethyl)carbam-oyl)pyrrolidin-1-yl)-3-methyl-1-oxobutan-2-yl)-1H-pyrazol-4-yl)pyridin-2-yl)oxy)azetidin-1-yl)nicotinamide] | – | – | – | – | DC50 [4]: < 50 nM; Dmax [5]: 51 to 70%
21 | Cc1ncsc1-c1ccc([C@H](C)NC(=O)[C@@H]2C[C@@H](O)CN2C(=O)[C@H](C(C)C)n2cc(-c3ccnc(N4CC[C@@H](Nc5ccc(C(=O)N[C@H]6C(C)(C)[C@H](Oc7ccc(C#N)c(Cl)c7)C6(C)C)cc5)C4)c3)cn2)cc1 [Example 596, (2S,4R)-1-((S)-2-(4-(2-((R)-3-((4-(((1r,3R)-3-(3-chloro-4-cyanophenoxy)-2,2,4,4-tetramethylcyclobutyl)carbamoyl)phenyl)amino)pyrrolidin-1-yl)pyridin-4-yl)-1H-pyrazol-1-yl)-3-methylbutanoyl)-4-hydroxy-N-((S)-1-(4-(4-methylthiazol-5-yl)phenyl)ethyl)pyrroli-dine-2-carboxamide] | – | – | – | – | DC50 [4]: > 501 nM; Dmax [5]: 26 to 50%
22 | Cc1ncsc1-c1ccc([C@H](C)NC(=O)[C@@H]2C[C@@H](O)CN2C(=O)[C@@H](C(C)C)n2cc(-c3ccnc(N4CC[C@@H](Nc5ccc(C(=O)N[C@H]6C(C)(C)[C@H](Oc7ccc(C#N)c(Cl)c7)C6(C)C)cc5)C4)c3)cn2)cc1 [Example 597, (2S,4R)-1-((R)-2-(4-(2-((R)-3-((4-(((1r,3R)-3-(3-chloro-4-cyanophenoxy)-2,2,4,4-tetramethylcylcobutyl)carbamoyl)phenyl)amino)pyrrolidin-1-yl)pyridin-4-yl)-1H-pyrazol-1-yl)-3-methylbutanoyl)-4-hydroxy-N-((S)-1-(4-(4-methylthiazol-5-yl)phenyl)ethyl)pyrroli-dine-2-carboxamide] | – | – | – | – | DC50 [4]: > 501 nM; Dmax [5]: < 25%
